Laboratory results from patent US20050244502A1, “Composition for enhancing absorption of a drug and method” (priority 2004, published 2005).

Tests used:
[1] = Intra-nasal DADLE absorption in rabbits; assay type: in vivo; settings: DADLE 1 mg/kg via syringe microsprayer in rabbit nostril
From the text: Intra-nasal delivery of the model pentapepdide DADLE in water, C971P, LPC or C971P/LPC formulation was studied in rabbits. […] The C971P/LPC formulation enhanced DADLE absorption by >50% compared to LPC alone.

Calu-3 cells [2] = test: Permeability (Papp) of DDAVP across Calu-3 cell monolayers on Transwell filters; settings: for additive permeability enhancement or change in epithelial resistance in the presence of Carbopol polymers (in words): enhancer with Carbopol polymers (Example 11)
Calu-3 cells [3] = test: Acute cytotoxicity assay (Alamar Blue) in Calu-3 cells; assay type: cell-based, human
From the text: FIG. 2 depicts an Alamar Blue Assay—Black bar indicates the % of the cell survival after 2 hrs treatment of LPC at 0-0.25%; gray bar indicates the combination of LPC with 0.5% of C971P.
This assay is based on the ability of live cells to enzymatically reduce Alamar blue dye which indicates the relative percentage of cells that survive the exposure to the various treatments. Calu-3 cells exposed to buffer for 2 hr were used as the positive control with 100% cell survival.

Calu-3 cells [4] = test: TEER measurement (cell integrity and reversibility) in Calu-3 cells; assay type: cell-based, human
From the text: The asterisk (delete scatters with) (*) represent (delete marker present) those samples where TEER recovered to the original level within 12 hrs after washout of the treatment.
Transepithelial electrical resistance (TEER) measures the integrity of the epithelial barrier. […] Return of the TEER values to initial levels indicates recovery to baseline barrier properties. TEER measurements were done in confluent highly resistant Calu-3 cells cultured in Transwell filters with handheld STX-2 electrodes connected to EVOM Voltohmmeter. […] After the removal of apical treatment, TEER recovered to the original values.

in vitro = settings: human
in vivo = settings: rat, 1 mg/kg
From the text: A dosing solution of DDAVP in water, C971P, LPC or C971P/LPC was directly injected into a 10-cm segment of rat colon. Blood was collected over a 2 hr period to assess the extent of systemic absorption from the various formulations.

For L-α-lysophosphatidylcholine [LPC], the “DADLE exposure, times higher than water control” value [1] was 2.4 times, the “DDAVP Papp increase compared with 0.5% C971P alone” value (Calu-3 cells [2]; LPC 0.01-0.25% combined with 0.5% C971P, dose-dependent, Calu-3 cells) was “up to 32 fold” and the cell survival (Calu-3 cells [3]; 0.05% LPC alone, 2 hr, buffer control = 100%) was “About 82%”. For the same molecule, the cell survival (Calu-3 cells [3]; 0.05% LPC with C971P (0.5%) in the formulation, 2 hr) was 95%, the cell survival (Calu-3 cells [3]; 0.1% LPC alone, 2 hr) was 41% and the cell survival (Calu-3 cells [3]; 0.1% LPC in the presence of C971P (0.5%), 2 hr) was greater than 90%. The “cell survival (in words)” value (Calu-3 cells [3]; LPC alone 0-0.25%, 2 hr) was “dose-dependent reduction in survival”, the “TEER recovery after removal of treatment (in words)” value (Calu-3 cells [4]; 0.05% LPC with C971P also present) was “recovered” and the “TEER change (in words)” value (Calu-3 cells [4]; LPC alone, 2 hr treatment) was “dramatic drop in TEER”. For the same molecule, the “extent of TEER drop (in words)” value (Calu-3 cells [4]; LPC with C971P present in the formulation, 2 hr treatment) was “significantly reduced”.
Molecule `NC(=O)CC[C@@H]1NC(=O)[C@H](Cc2ccccc2)NC(=O)[C@H](Cc2ccc(O)cc2)NC(=O)CCSSC[C@@H](C(=O)N2CCC[C@H]2C(=O)N[C@H](CCCN=C(N)N)C(=O)NCC(N)=O)NC(=O)[C@H](CC(N)=O)NC1=O` [DDAVP, 1 deamino-8-D-arginin-vasopressin] has a Papp (in vitro) of 0.04 ± 0.003 ×10⁻⁶ cm/s and a bioavailability (in vivo) of 0.1 ± 0.1%.
For `CCCCCCCCCC(=O)[O-].[Na+]` [sodium caprate], the “additive permeability enhancement or change in epithelial resistance in the presence of Carbopol polymers (in words)” value (Calu-3 cells [2]) was “do not show additive permeability enhancement advantage or change in epithelial resistance” and the “effect of Carbopol 971P on acute cytotoxicity of the enhancer (in words)” value (Calu-3 cells [3]; enhancer combined with Carbopol 971P, Alamar Blue, Calu-3 cells) was “failed to reduce the acute cytotoxicity”.
With Phosphatidylcholine [Lecithin] the “DDAVP permeability enhancement or TEER drop (in words)” value (Calu-3 cells [2]; Carbopol added along with phosphatidylcholine) was “no significant enhancement in permeability or drop in TEER”, the “DDAVP Permeability” value (Calu-3 cells [2]; Lecithin 1 mM) was 0.045 ± 0.003 ×10⁻⁶ cm/s and the “DDAVP Permeability” value (Calu-3 cells [2]; Lecithin 2 mM) was 0.044 ± 0.003 ×10⁻⁶ cm/s. For the same molecule, the “DDAVP Permeability” value (Calu-3 cells [2]; Lecithin 5 mM) was 0.044 ± 0.004 ×10⁻⁶ cm/s, the “additive permeability enhancement or change in epithelial resistance in the presence of Carbopol polymers (in words)” value (Calu-3 cells [2]) was “do not show additive permeability enhancement advantage or change in epithelial resistance” and the “DDAVP permeability enhancement or TEER drop (in words)” value (Calu-3 cells [2]; phosphatidylcholine alone, Calu-3 cells) was “failed to show any measurable enhancement or TEER drop”. The “TEER after 2 hr (% initial)” value (Calu-3 cells [4]; Lecithin 1 mM) was “No change”, the “TEER after 2 hr (% initial)” value (Calu-3 cells [4]; Lecithin 2 mM) was “No change” and the “TEER after 2 hr (% initial)” value (Calu-3 cells [4]; Lecithin 5 mM) was “No change”.
